Data on 19 compounds can be found in patent US20240109900A1, “AZABICYCLIC SHP2 INHIBITORS” (IRBM S.P.A., priority 2021, published 2024).

The structures appear in SMILES notation.

For one experiment, the system named is ERK phosphorylation in KYSE-520 cells. The experiment in a line: Phospho-ERK cellular assay. The class given is cell-based. The conditions noted are these: Homo sapiens, KYSE-520, 2 h, KYSE-520 cells, 2 h at 37° C., phospho-ERK1/2 (Thr202/Tyr204) TR-FRET; read-out: PERK IC50. The method, then: ERK phosphorylation was detected using the “Advanced phospho-ERK1/2 (Thr202/Tyr204)” TR-FRET kit (Cisbio, Cat #64AERPEG/H), following the manufacturer reagents and instructions.
Briefly, 20.000/well KYSE-520 cells (DSMZ ACC 371) were plated in 6 μL RPMI-1640 (Invitrogen) growth medium, into 384 white low-volume high base TC microplates (Greiner). After an overnight incubation, cells were treated with DMSO serial diluted compounds and incubated for 2 h at 37° C. After incubation, 2 μL/well of 4×Lysis Buffer (Cisbio 64KL1FDF), were added and incubated with cells for 30 min on gentle shaking. Finally, lysates were added with 2 μL/well of Eu cryptate (donor) and D2 (acceptor) conjugated antibodies (as provided by the Cisbio kit #64AERPEG/H) diluted 1:100 in Detection Buffer (as provided by the Cisbio kit #64AERPEG/H). Plates were then sealed and incubated at room temperature in the dark. After an overnight incubation, the TR-FRET signal was detected on a suitable reader (Envision, PerkinElmer). The lower the TR-FRET signal the higher the higher the SHP2 inhibition in cells.
The activity of each compound dilution was calculated as percentage between vehicle DMSO treated cells and no cells, 0% inhibition and 100% inhibition respectively. The percentage activity is fitted against the compound dilutions with a four-parameter logistic regression. The inflection point (i.e. the concentration at which half-maximal inhibition is achieved) is the IC50.
(In general: Time-resolved FRET reads energy transfer from a long-lived donor to a nearby acceptor.)
One may read the IC50 as the concentration at which inhibition is half-maximal. On to `NC[C@]1(c2ccccc2F)[C@@H]2CCN(c3cnc4c(-c5cccc(-c6ncco6)c5Cl)n[nH]c4n3)C[C@@H]21` [Example 168, ((1S,6R,7R)-3-(3-(2-chloro-3-(oxazol-2-yl)phenyl)-1H-pyrazolo[3,4-b]pyrazin-6-yl)-7-(2-fluorophenyl)-3-azabicyclo[4.1.0]heptan-7-yl)methanamine], for which the IC50 is < 1000 nM.

In the case of `CC(O)c1ccc(-c2n[nH]c3nc(N4CC[C@@H]5[C@H](C4)[C@@]5(CN)c4ccccc4F)cnc23)c2cccnc12` (stereo partly drawn) [Example 142, 1-(5-(6-((1S,6R,7R)-7-(aminomethyl)-7-(2-fluorophenyl)-3-azabicyclo[4.1.0]heptan-3-yl)-1H-pyrazolo[3,4-b]pyrazin-3-yl)quinolin-8-yl)ethan-1-ol], the concentration for half-maximal inhibition (IC50) is < 1000 nM.

As to `NC[C@]1(c2ccccc2F)[C@@H]2CCN(c3cnc(Sc4ccc(C(N)=O)c5ncccc45)c(N)n3)C[C@@H]21` [Example 525, 5-((3-amino-5-((1S,6R,7R)-7-(aminomethyl)-7-(2-fluorophenyl)-3-azabicyclo[4.1.0]heptan-3-yl)pyrazin-2-yl)thio)quinoline-8-carboxamide], the half-inhibitory concentration (IC50) is > 5000 nM.

For `Cc1csc([C@@]2(CN)[C@@H]3CN(c4cnc5c(-c6ccnc(-n7cccn7)c6Cl)n[nH]c5n4)C[C@@H]32)n1` [Example 516, ((1R,5S,6r)-3-(3-(3-chloro-2-(1H-pyrazol-1-yl)pyridin-4-yl)-1H-pyrazolo[3,4-b]pyrazin-6-yl)-6-(4-methylthiazol-2-yl)-3-azabicyclo[3.1.0]hexan-6-yl)methanamine], the IC50 is < 1000 nM.

As to `Cc1csc([C@@]2(CN)[C@@H]3CN(c4cnc(Sc5ccnc(-n6cccn6)c5Cl)cn4)C[C@@H]32)n1` [Example 520, ((1R,5S,6r)-3-(5-((3-chloro-2-(1H-pyrazol-1-yl)pyridin-4-yl)thio)pyrazin-2-yl)-6-(4-methylthiazol-2-yl)-3-azabicyclo[3.1.0]hexan-6-yl)methanamine], the IC50 is < 1000 nM.

With `NC[C@]1(c2ccsn2)[C@@H]2CN(c3cnc4c(-c5ccc6nn(C(F)F)cc6c5Cl)n[nH]c4n3)C[C@@H]21` [Example 468, ((1R,5S,6r)-3-(3-(4-chloro-2-(difluoromethyl)-2H-indazol-5-yl)-1H-pyrazolo[3,4-b]pyrazin-6-yl)-6-(isothiazol-3-yl)-3-azabicyclo[3.1.0]hexan-6-yl)methanamine], the IC50 was < 1000 nM.

For the compound `NC[C@]1(c2ccccc2F)[C@@H]2CCN(c3cnc4c(-c5ccc(CC(N)=O)cc5Cl)n[nH]c4n3)C[C@@H]21` [Example 328, 2-(4-(6-((1S,6R,7R)-7-(aminomethyl)-7-(2-fluorophenyl)-3-azabicyclo[4.1.0]heptan-3-yl)-1H-pyrazolo[3,4-b]pyrazin-3-yl)-3-chlorophenyl)acetamide], the half-inhibitory concentration (IC50) was > 5000 nM.

As to `NC[C@]1(c2ccccc2F)[C@@H]2CCN(c3cnc4c(-c5ccc(-c6nsc(O)n6)cc5Cl)n[nH]c4n3)C[C@@H]21` [Example 379, 3-(4-(6-((1S,6R,7R)-7-(aminomethyl)-7-(2-fluorophenyl)-3-azabicyclo[4.1.0]heptan-3-yl)-1H-pyrazolo[3,4-b]pyrazin-3-yl)-3-chlorophenyl)-1,2,4-thiadiazol-5-ol], the IC50 was > 5000 nM.

Turning to `NC[C@]1(c2ccccc2F)[C@@H]2CCN(c3cnc4c(-c5ccc(-c6cc(F)c(O)c(F)c6)cc5Cl)n[nH]c4n3)C[C@@H]21` [Example 313, 4′-(6-((1S,6R,7R)-7-(aminomethyl)-7-(2-fluorophenyl)-3-azabicyclo[4.1.0]heptan-3-yl)-1H-pyrazolo[3,4-b]pyrazin-3-yl)-3′-chloro-3,5-difluoro-[1,1′-biphenyl]-4-ol], the half-inhibitory concentration (IC50) is < 1000 nM.

Consider `Cc1csc([C@@]2(CN)[C@@H]3CN(c4nc(C)n(-c5cccc(Cl)c5Cl)c(=O)c4Cl)C[C@@H]32)n1` [Example 526, 6-((1R,5S,6r)-6-(aminomethyl)-6-(4-methylthiazol-2-yl)-3-azabicyclo[3.1.0]hexan-3-yl)-5-chloro-3-(2,3-dichlorophenyl)-2-methylpyrimidin-4(3H)-one], for which the 50% inhibitory concentration (IC50) is > 5000 nM.

As for `NCC1(c2ccccc2F)C2CCN(c3cc4nc(Sc5ccnc(N)c5Cl)cnc4[nH]3)CC21` (stereo not shown) [Example 59, 4-((6-(7-(aminomethyl)-7-(2-fluorophenyl)-3-azabicyclo[4.1.0]heptan-3-yl)-5H-pyrrolo[2,3-b]pyrazin-2-yl)thio)-3-chloropyridin-2-amine], the IC50 is < 1000 nM.

For `Cc1csc([C@@]2(CN)[C@@H]3CCN(c4cnc5c(-c6ccc(F)c7ncccc67)c[nH]c5n4)C[C@@H]32)n1` [Example 502, ((1S,6R,7S)-3-(7-(8-fluoroquinolin-5-yl)-5H-pyrrolo[2,3-b]pyrazin-3-yl)-7-(4-methylthiazol-2-yl)-3-azabicyclo[4.1.0]heptan-7-yl)methanamine], the IC50 was < 1000 nM.

For `Cc1cc(C(N)=O)ncc1-c1n[nH]c2nc(N3CC[C@@H]4[C@H](C3)[C@@]4(CN)c3ccccc3F)cnc12` [Example 307, 5-(6-((1S,6R,7R)-7-(aminomethyl)-7-(2-fluorophenyl)-3-azabicyclo[4.1.0]heptan-3-yl)-1H-pyrazolo[3,4-b]pyrazin-3-yl)-4-methylpicolinamide], the IC50 was < 1000 nM.

Regarding `NC[C@]1(c2ccccc2F)[C@@H]2CCN(c3nc4nc(Sc5ccnc(-n6cccn6)c5Cl)cnc4[nH]3)C[C@@H]21` [Example 342, ((1S,6R,7R)-3-(5-((3-chloro-2-(1H-pyrazol-1-yl)pyridin-4-yl)thio)-1H-imidazo[4,5-b]pyrazin-2-yl)-7-(2-fluorophenyl)-3-azabicyclo[4.1.0]heptan-7-yl)methanamine], the IC50 was > 5000 nM.

With `CC(C)(C)C#Cc1n[nH]c2nc(N3CC[C@@H]4[C@H](C3)[C@@]4(CN)c3ccccc3F)cnc12` [Example 366, ((1S,6R,7R)-3-(3-(3,3-dimethylbut-1-yn-1-yl)-1H-pyrazolo[3,4-b]pyrazin-6-yl)-7-(2-fluorophenyl)-3-azabicyclo[4.1.0]heptan-7-yl)methanamine], the IC50 is < 1000 nM.

With `N#CNC(=O)c1ccc(-c2n[nH]c3nc(N4CC[C@@H]5[C@H](C4)[C@@]5(CN)c4ccccc4F)cnc23)c(Cl)c1` [Example 310, 4-(6-((1S,6R,7R)-7-(aminomethyl)-7-(2-fluorophenyl)-3-azabicyclo[4.1.0]heptan-3-yl)-1H-pyrazolo[3,4-b]pyrazin-3-yl)-3-chloro-N-cyanobenzamide], the half-maximal inhibitory concentration (IC50) is > 5000 nM.

Take `Cc1cc([C@@]2(CN)[C@@H]3CCN(c4cnc5c(-c6cccc(-c7ncco7)c6Cl)n[nH]c5n4)C[C@@H]32)no1` [Example 111, ((1S,6R,7S)-3-(3-(2-chloro-3-(oxazol-2-yl)phenyl)-1H-pyrazolo[3,4-b]pyrazin-6-yl)-7-(5-methylisoxazol-3-yl)-3-azabicyclo[4.1.0]heptan-7-yl)methanamine]: the IC50 is < 1000 nM.

For the compound `Cc1c(-c2n[nH]c3nc(N4CC[C@@H]5[C@H](C4)[C@@]5(CN)c4cc(F)cc(F)c4)cnc23)ccc2nn(C)cc12` [Example 308, ((1S,6R,7R)-7-(3,5-difluorophenyl)-3-(3-(2,4-dimethyl-2H-indazol-5-yl)-1H-pyrazolo[3,4-b]pyrazin-6-yl)-3-azabicyclo[4.1.0]heptan-7-yl)methanamine], the IC50 is < 1000 nM.

A further experiment deals with SHP-2 enzyme (Met1-Leu525) (Homo sapiens (Human), UniProt Q06124). In words: SHP2 inhibition enzymatic assay. The class given is biochemical. Particulars: 0.5 nM SHP-2 activated by 500 nM IRS1 peptide, 75 μM DiFMUP substrate; read-out: SHP2wt-IC50. The method, then: The assay was performed as described in YP Chen et al, Nature (535)2016. Assay volume of 20 μL/well was assembled in 384 well black polystyrene low-binding microplates (Greiner), using the following buffer: 60 mM HEPES pH 7.2, 75 mM NaCl, 75 mM KCl, 1 mM EDTA pH 8, 0.05% tween-20, 5 mM DTT. The SHP-2 enzyme (synthetized by Origene, Met1-Leu525, cat #TP750155) was used at a final concentration of 0.5 nM. The enzyme was activated by 500 nM IRS1 peptide (sequence: H2N-LN(pY)IDLDLV(dPEG8)LST(pY)ASINFQK-amide SEQ ID No. 1) and incubated with 75 μM DiFMUP (Sigma) as substrate.
Sequence of SHP-2 enzyme (Met1-Leu525) (Q06124 1-525): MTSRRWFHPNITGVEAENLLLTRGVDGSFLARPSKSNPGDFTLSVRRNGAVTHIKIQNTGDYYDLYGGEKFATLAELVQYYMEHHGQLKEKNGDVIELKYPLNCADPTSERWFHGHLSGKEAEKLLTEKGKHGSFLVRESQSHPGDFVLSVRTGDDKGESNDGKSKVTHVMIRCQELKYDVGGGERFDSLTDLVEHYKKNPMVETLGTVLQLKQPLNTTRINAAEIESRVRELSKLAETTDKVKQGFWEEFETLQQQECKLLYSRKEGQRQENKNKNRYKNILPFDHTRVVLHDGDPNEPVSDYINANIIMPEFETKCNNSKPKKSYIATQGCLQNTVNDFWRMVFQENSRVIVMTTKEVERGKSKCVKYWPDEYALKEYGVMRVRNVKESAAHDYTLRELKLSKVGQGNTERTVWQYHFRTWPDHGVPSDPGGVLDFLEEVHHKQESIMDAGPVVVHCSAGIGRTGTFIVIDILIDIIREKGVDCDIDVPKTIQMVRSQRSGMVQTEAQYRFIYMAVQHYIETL
Briefly, DMSO serially diluted testing compounds were transferred to the bottom of the assay plate. SHP2 was then added together with the IRS1 peptide. 30 min post incubation, the DiFMUP substrate was added to the reaction and incubated 30 min at room temperature. Finally 5 μL of 160 μM bpV (Potassium bisperoxo[1,10-phenanthroline]oxovanadate [V], Sigma) were added to stop and quench the reaction. The fluorescence was detected by a microplate reader (Envision, PerkinElmer) according to the DiFMUP excitation and emission wavelength. The lower the fluorescence the higher the SHP2 inhibition. […] The percentage inhibition is fitted against the compound dilutions with a four-parameter logistic regression. The inflection point (i.e. the concentration at which half-maximal inhibition is achieved) is the IC50.
Take `NC[C@]1(c2ccccc2F)[C@@H]2CCN(c3cnc4c(-c5cccc(-c6ncco6)c5Cl)n[nH]c4n3)C[C@@H]21` [Example 168, ((1S,6R,7R)-3-(3-(2-chloro-3-(oxazol-2-yl)phenyl)-1H-pyrazolo[3,4-b]pyrazin-6-yl)-7-(2-fluorophenyl)-3-azabicyclo[4.1.0]heptan-7-yl)methanamine]: the half-inhibitory concentration (IC50) was < 500 nM.

Consider `CC(O)c1ccc(-c2n[nH]c3nc(N4CC[C@@H]5[C@H](C4)[C@@]5(CN)c4ccccc4F)cnc23)c2cccnc12` (stereo partly drawn) [Example 142, 1-(5-(6-((1S,6R,7R)-7-(aminomethyl)-7-(2-fluorophenyl)-3-azabicyclo[4.1.0]heptan-3-yl)-1H-pyrazolo[3,4-b]pyrazin-3-yl)quinolin-8-yl)ethan-1-ol], for which the IC50 was < 500 nM.

As for `NC[C@]1(c2ccccc2F)[C@@H]2CCN(c3cnc(Sc4ccc(C(N)=O)c5ncccc45)c(N)n3)C[C@@H]21` [Example 525, 5-((3-amino-5-((1S,6R,7R)-7-(aminomethyl)-7-(2-fluorophenyl)-3-azabicyclo[4.1.0]heptan-3-yl)pyrazin-2-yl)thio)quinoline-8-carboxamide], the IC50 was < 500 nM.

As to `NC[C@]1(c2cc(F)ccc2F)[C@@H]2CCN(c3cnc4nc(-c5ccc6c(c5)CCC(=O)N6)ccc4n3)C[C@@H]21` [Example 531, 6-(2-((1S,6R,7R)-7-(aminomethyl)-7-(2,5-difluorophenyl)-3-azabicyclo[4.1.0]heptan-3-yl)pyrido[2,3-b]pyrazin-6-yl)-3,4-dihydroquinolin-2(1H)-one], the IC50 was < 500 nM.
